According to patent US20230357300A1, “TRITERPENE SAPONIN SYNTHESIS, INTERMEDIATES AND ADJUVANT COMBINATIONS” (priority 2017, published 2023):

How the values were obtained:
[1] = Stability at 37° C.; type: physicochemical; conditions: for degradation: after two weeks at 37° C.
Procedure: (§1) Natural and synthetic QS-21 (SQS-21 or SAPONEX®) and a variety of analogs were tested for hemolytic activity. […] FIG. 5 depicts results a hemolytic assay performed with TiterQuil-1055. In a companion toxicity study three days after immunization, animals that received 20 mcg of QS-21 have lost 8-10% of their body mass on average, whereas PBS, TiterQuil-101 and TiterQuil-1055 recipients have gained 5% on average (normal weight gain in young mice). Without being bound by theory, hemolytic activity may be a direct result of degradation of QS-21 under physiologic conditions and TiterQuil-1055′s lack of hemolytic activity may result from improved stability.

[2] = Body weight of mice in the Engerix-B / TiterQuil-1055 dose study; type: in vivo
Procedure: (§2) Experiments were conducted with Engerix-B (HBV adult vaccine) in groups of 10 mice. Initially 3 mcg, 1 mcg, 0.3 mcg, 0.1 mcg, and 0.03 mcg Engerix-B doses per mouse were tested. Mean resulting anti-HBsAg antibody levels were 92,512 mcg/ml, 64,255 mcg/ml, 24,847 mcg/ml, 3,682 mcg/ml, and 910 mcg/ml respectively, with the 0.03 dose being indistinguishable from controls (821 mcg/ml). The 0.3 mcg dose of Engerix-B was selected for further studies and this dose was used mixed with various doses of TiterQuil-1055 (TQL-1055 / Compound I-4). The resulting geometric mean antibody concentrations are summarized in FIG. 4 of the present application.

[3] = Companion toxicity study, body mass three days after immunization; type: in vivo, mice
Procedure: as §1

[4] = system: mice; experiment: Adacel (Tdap vaccine) immunogenicity in mice, anti-PT antibody in serum; type: in vivo; conditions: for augmentation of antibody levels compared to immunization with Adacel alone: 2 weeks after second SC immunization, adjuvant given with Adacel
Procedure: (§3) Adacel doses containing 1, 0.3, and 0.1 mcg of pertussis toxin per mouse were administered subcutaneously (SC, with no immunological adjuvant), using 2 vaccinations 4 weeks apart, resulting in a mean of 1,618 mcg, 898 mcg, and 107 mcg respectively of anti-PT antibody per ml of serum drawn 2 weeks after the second vaccination. The 0.1 mcg dose was indistinguishable from unvaccinated controls (96 mcg/ml). A 0.5 mcg dose of Adacel was selected for a pharmacology/toxicology (pharm/tox) study. The serological results for this study are summarized in FIG. 3 of the present application.

[5] = system: mice; experiment: Engerix-B (hepatitis B vaccine) immunogenicity in mice, anti-HBsAg antibody; type: in vivo
Procedure: as §2

[6] = system: mice; type: in vivo; conditions: for changes in blood chemistry or hematology results: mice vaccinated SC days 1 and 15; for weight loss (body weight): mice, 50 mcg TiterQuil-1055, 20 mcg QS-21; for liver histopathology (hepatocellular cytoplasmic vacuolization / vacuolar changes): sacrificed day 22, 33 tissues examined
Procedure: as §3
A pharm/tox study was conducted in 7 groups of 5 mice: 1) PBS alone, 2) 50 mcg TiterQuil-1055, 3) 20 mcg QS-21, 4) Adacel 2.5 mcg pertussis toxin (⅕ the human dose), 5) Adacel + QS-21 (20 mcg QS-21), 6) Adacel + TiterQuil-1055 (50 mcg), 7) Adacel + TiterQuil-1055 (50 mcg). Mice were vaccinated SC on days 1 and 15, weighed daily, and bled and sacrificed on day 22, except for group 7 which was sacrificed on day 29. […] Histopathology of 33 different tissues was performed on all mice. Detected abnormalities were restricted to the liver. […] This abnormality was short lived and was no detected in group 7, which was sacrificed one week after groups 1-6.

[7] = system: hemolysis; experiment: Hemolytic assay; type: cell-based
Procedure: FIG. 5 depicts data showing the hemolytic activity of QS-21 at 2uM, 5uM and 20uM, and Compound 26 (TiterQuil-1-0-5-5 / TQL-1055) at 20uM, 100uM and 200uM. % Hemolytic activity reported as % of Triton-X100/SDS lysis control.
as §1

[8] = cited from earlier work
[9] = 50 mcg TiterQuil-1055, 20 mcg QS-21, Adacel 2.5 mcg pertussis toxin

CC1O[C@@H](OC2C(O)[C@@H](NC(=O)CCCCCCCCCCC(=O)O)C(CO)O[C@H]2OC(=O)[C@]23CCC(C)(C)CC2C2=CCC4C5(C)CC[C@H](O)C(C)(C=O)[C@@H]5CC[C@@]4(C)C2(C)CC3O)C(O)C(O)[C@H]1O[C@@H]1OC[C@@H](O)C(O)C1O (stereo partly shown) [TiterQuil-1055]
degradation [1]: without detectable degradation | stability ([1]; compared with QS-21): increased stability | weight loss ([2]; 30 mcg TiterQuil-1055 dose): No weight loss | weight loss ([2]; 100 mcg TiterQuil-1055 dose): 4% | weight loss ([2]; 300 mcg TiterQuil-1055 dose): 5% | body mass gained on average [3]: 5% | antibody levels 2 weeks later ([4]; Adacel with TiterQuil-1055, 2 weeks after the first reading): further increased | augmentation of antibody levels compared to immunization with Adacel alone ([4]; groups of 5 mice): 70 fold | antibody levels 2 weeks after the second SC immunization ([4]; pharm/tox study, groups of 5 mice, Adacel alone or Adacel with TiterQuil-1055): 52,344 | increase in antibody levels compared to Engerix-B alone ([5]; 10 mcg TiterQuil-1055 mixed with 0.3 mcg Engerix-B): no serologic effect | increase in antibody levels compared to Engerix-B alone ([5]; 30 mcg TiterQuil-1055 mixed with 0.3 mcg Engerix-B): > 6 fold | increase in antibody levels compared to Engerix-B alone ([5]; 100 mcg TiterQuil-1055 mixed with 0.3 mcg Engerix-B): 5 fold | antibody response at high adjuvant doses ([5]; TiterQuil-1055 doses above 50 mcg per mouse): Lack of antibody increase or decreasing responses | weight loss ([6]; mice vaccinated SC days 1 and 15, weighed daily, 50 mcg TiterQuil-1055, 20 mcg QS-21, Adacel 2.5 mcg pertussis toxin): no other mice | changes in blood chemistry or hematology results [6, 9]: No changes | weight loss (body weight) [6]: No weight loss | liver histopathology (hepatocellular cytoplasmic vacuolization / vacuolar changes) [6, 9]: No changes at all | hemolytic activity [7]: much lower or undetectable hemolytic activity

QS-21 [reference compound]
degradation [1]: 20% | tolerated (maximum) dose in cancer patients ([8]; cancer patients, above it local and systemic side effects): 100 to 150 µg | maximum dose for healthy patients ([8]; healthy patients): ~50 µg | highest practical tolerable dose ([8]; well (non-cancer) adult and child recipients): 25 to 50 µg | body mass lost on average ([3]; 20 mcg QS-21): 8-10% | augmentation of antibody levels compared to immunization with Adacel alone ([4]; groups of 5 mice): 10 fold | changes in blood chemistry or hematology results [6, 9]: No changes | weight loss (body weight) [6]: 8-9% | liver histopathology (hepatocellular cytoplasmic vacuolization / vacuolar changes) [6, 9]: Mild vacuolar changes | hemolytic activity [7]: highly hemolytically active
